Data: patent US20170367956A1, “Oral Care Composition” (Colgate-Palmolive Company, priority 2014, published 2017)

What was measured:
[1] = test system: HSP-27; assay: Intracellular HSP27 expression in scratched keratinocytes (ELISA); format: cell-based, human; conditions: for HSP-27, intracellular: 50 ppm taurine
Protocol: Human keratinocytes are cultured in DMEM medium supplemented with 10% FBS and 1% of antibiotic at 37° C. under a 5% CO2 atmosphere in petri dishes. Once the cells are 80-90% confluent, a scratch is made horizontally and a scratch is made vertically across the layer of cells. […] […] The cell suspension is then homogenized with metal beads for 5 minutes and then analyzed for HSP27 using ELISA. In both untreated and arginine treated cells, scratching induces a strong increase in intracellular HSP-27 expression at one hour which declines at 4 hours. […] Without being bound by theory, Applicants believe that it is this initial burst of HSP-27 expression at the time of physical injury that contributes to improved wound healing.

[2] = test system: HSP 27; assay: HSP 27 assay in scratched (damaged) human gingival tissue, supernatant level; format: cell-based; conditions: for Concentration of HSP 27: scratched gingival tissue
Protocol: A scratching protocol was used to damage and stress human gingival tissue (MatTek Corporation). Taurine, at two doses, (50 ppm and 200 ppm), was applied to the culture medium containing the tissue. The treated tissue was incubated at 37° C. to promote tissue healing. Cell supernatant was collected at various time points and the level of HSP 27 was measured.

[3] = test system: Human keratinocytes; assay: Migration of human keratinocytes after scratch (gap closure); format: cell-based; conditions: for % Gap Closure: 100 ppm taurine in DMEM
Protocol: Human keratinocytes are cultured in DMEM medium supplemented with 10% FBS and 1% of antibiotic at 37° C. under a 5% CO2 atmosphere in petri dishes. Once the cells are 80-90% confluent, a scratch is made horizontally and a scratch is made vertically across the layer of cells. 1 ml of a test solution is added to the culture, and the cells are further incubated and monitored by photomicroscopy to evaluate the closure of the gap created by the scratches. The test solutions compared are 100 ppm Taurine in DMEM medium and untreated DMEM medium. The results are shown in Table 4 below, expressed as the average width of the gap as a percentage of the initial width of the gap (at 0 hours).

SMILES: NCCS(=O)(=O)O [Taurine, 2-aminoethanesulfonic acid]
- HSP-27, intracellular ([1]; time 0 hr): 23.59 ng/mL
- HSP-27, intracellular ([1]; time 1 hr): 69.65 ng/mL
- Difference in HSP 27 production between the two concentrations of taurine (in words) ([2]; 50 ppm versus 200 ppm): no significant difference
- Effect on production of HSP 27 versus untreated, scratched tissue (in words) ([2]; both doses tested (50 ppm and 200 ppm), 1 hour and 4 hours): significantly accelerated the production of HSP 27
- Concentration of HSP 27 ([2]; taurine 50 ppm, incubation time 0 hr): 10.05 ng/mL
- Concentration of HSP 27 ([2]; taurine 50 ppm, incubation time 1 hr): 180.33 ng/mL
- Concentration of HSP 27 ([2]; taurine 50 ppm, incubation time 4 hr): 269.64 ng/mL
- Concentration of HSP 27 ([2]; taurine 200 ppm, incubation time 0 hr): 6.19 ng/mL
- Concentration of HSP 27 ([2]; taurine 200 ppm, incubation time 1 hr): 196.95 ng/mL
- Concentration of HSP 27 ([2]; taurine 200 ppm, incubation time 4 hr): 275.17 ng/mL
- Speed of gap closure compared to the DMEM control (in words) ([3]; 100 ppm taurine): significantly faster
- % Gap Closure ([3]; 24 hr after scratch): 23%
- % Gap Closure ([3]; 48 hr after scratch): 71%
- % Gap Closure ([3]; 144 hr after scratch): 100%

SMILES: N=C(N)NCCC[C@H](N)C(=O)O [arginine]
- Intracellular HSP-27 expression versus untreated cells (in words) [1]: significantly higher expression of HSP-27
